Results taken from patent US6395759B1, “Substituted benzamide derivatives and pharmaceutical compositions containing them” (SmithKline Beecham p.l.c., priority 1999, dated 2002).

What was measured:
[1] = molecular target: novel receptor obtainable from rat forebrain tissue; assay: [3H]-Compound A radioligand binding assay; details: competition with [3H]-Compound A (20 nM)
Experimental: WO 92/22293 (SmithKline Beecham) discloses compounds having anti-convulsant activity, including inter alia the compound trans-(+)-6-acetyl-4S-(4-fluorobenzoylamino)-3,4-dihydro-2,2-dimethyl-2H-1-benzopyran-3R-ol (hereinafter referred to as Compound A). […] The affinity of test compounds to the novel receptor site is assessed as follows.
Whole forebrain tissue is obtained from rats. The tissue is first homogenised in buffer (usually 50 mM Tris/HCl, pH 7.4). The homogenised tissue is washed by centrifugation and resuspension in the same buffer, then stored at −70° C. until used.
To carry out the radioligand binding assay, aliquots of tissue prepared as above (usually at a concentration of 1-2 mg protein/ml) are mixed with aliquots of [3H]-Compound A dissolved in buffer. The final concentration of [3H]-Compound A in the mixture is usually 20 nM. The mixture is incubated at room temperature for 1 hour. [3H]-Compound A bound to the tissue is then separated from unbound [3H]-Compound A by filtration through Whatman GF/B glass fibre filters. The filters are then washed rapidly with ice-cold buffer. The amount of radioactivity bound to the tissue trapped on the filters is measured by addition of liquid scintillation cocktail to the filters followed by counting in a liquid scintillation counter. […]

[2] = tested on: electrically-induced seizures in mice; assay: Maximal electroshock seizure threshold (MEST) test; type: in vivo; details: 10 mg/kg po, suspension in methyl cellulose, one hour post dosing
Experimental: The maximal electroshock seizure threshold (MEST) test in rodents is particularly sensitive for detecting potential anticonvulsant properties^1. In this model, anticonvulsant agents elevate the threshold to electrically-induced seizures whilst proconvulsants lower the seizure threshold.
Mice (naive, male, Charles River, U.K. CD-1 strain, 25-30 g) are randomly assigned to groups of 10-20 and dosed orally or intraperitoneally at a dose volume of 10 ml/kg with various doses of compound (0.3-300 mg/kg) or vehicle. Mice are then subjected at 30 or 60 min post dose to a single electroshock (0.1 sec, 50 Hz, sine wave form) administered via corneal electrodes. The mean current and standard error required to induce a tonic seizure in 50% (CC50) of the mice in a particular treatment group is determined by the ‘up and down’ method of Dixon and Mood (1948)^2. Statistical comparisons between vehicle- and drug-treated groups are made using the method of Litchfield and Wilcoxon (1949)^3.
In control animals the CC50 is usually 14-18 mA. […] If a tonic convulsion does occur, then the current is decreased, and so on until all the animals in the group have been tested.
The percentage increase or decrease in CC50 for each group compared to the control is calculated. […]

## COc1cc(C(C)(C)C)ccc1C(=O)Nc1cccc(C2CCCN2)c1 (racemic) [Example 1, (±)-4-tert-Butyl-2-methoxy-N-(3-pyrrolidin-2-yl-phenyl)-benzamide, monohydroclhloride]
[1]
  pKi value: greater than 7
[2]
  increase in seizure threshold (CC50) compared to control: 53%
